Test system: subjects with moderate-to-severe plaque psoriasis
Assay: PASI response, Example 1 16-week dose-ranging study
Assay type: in vivo, human
Conditions: for Subjects achieving PASI 75: Week 4
Protocol: The Psoriasis Area and Severity Index (PASI) is a system used for assessing and grading the severity of psoriatic lesions and their response to therapy. In the PASI system, the body is divided into four regions: the head, trunk, upper extremities, and lower extremities. Each of these areas is assessed and scored separately for erythema, induration, and scaling, which are each rated on a scale of 0 to 4 and extent of involvement on a scale of 0 to 6. The PASI produces a numeric score (a “PASI score”) that can range from 0 to 72. A higher score indicates more severe disease.
This was a randomized, double-blind, placebo-controlled, dose-ranging, parallel group, multicenter, interventional study in subjects with moderate-to-severe plaque psoriasis. A target of 240 subjects were enrolled in this study with 40 subjects planned per intervention group.
Clinician-reported outcomes including Psoriasis Area and Severity Index (PASI), Body Surface Area (BSA), Investigator's Global Assessment (IGA), Nail Psoriasis Area and Severity Index (NAPSI), Fingernail Physician's Global Assessment (f-PGA), Static Physician's Global Assessment of Genitalia (s-PGA-G), Physician's Global Assessment of Hands and/or Feet (hf-PGA), and Scalp Specific Investigator Global Assessment (ss-IGA) were obtained at Week 0, 8, and 16. PASI and IGA were also obtained at Weeks 1, 2, 4, and 12, and at Week 20, four weeks after the administration of the tablets has stopped.
The primary efficacy endpoint was the proportion of participants achieving a PASI 75 response at Week 16, defined as at least a 75% reduction from baseline in PASI total score.
For the primary analysis, composite strategy (non-responder imputation) was applied to address intercurrent event #1 (Discontinuation of study intervention due to lack of efficacy or due to an AE of worsening of psoriasis) and #2 (initiation of a protocol-prohibited medication or therapy that could improve psoriasis); and treatment policy strategy (observed data) was applied to intercurrent event #3 (Discontinuation of study intervention due to other reasons). Participants with missing data after application of ICEs are also considered as non-responders.
In addition to the response analysis, pairwise comparisons of each treatment group versus the placebo group were performed for the primary endpoint of PASI 75 at Week 16. Pairwise comparisons were not adjusted for multiplicity. The Cochran-Mantel-Haenszel chi-square statistic stratified by baseline weight category (≤90 kg, >90 kg) at a 2-sided significance level of 0.05 was used (Table 2).

[1] = 25 mg QD, Week 16, trough plasma conc ≥Q3
[2] = 50 mg QD, Week 16, peak plasma conc. <Q1, N=2
[3] = 50 mg QD, Week 16, peak plasma conc. Q1 to <Q2, N=2
[4] = 50 mg QD, Week 16, peak plasma conc. Q2 to <Q3, N=2
[5] = 50 mg QD, Week 16, peak plasma conc. ≥Q3, N=2
[6] = 50 mg QD, Week 16, trough plasma conc <Q1
[7] = 50 mg QD, Week 16, trough plasma conc Q1 to <Q2
[8] = 50 mg QD, Week 16, trough plasma conc Q2 to <Q3
[9] = 50 mg QD, Week 16, trough plasma conc ≥Q3
[10] = 100 mg BID, Week 16, peak plasma conc. <Q1, N=2
[11] = 100 mg BID, Week 16, peak plasma conc. Q1 to <Q2, N=3
[12] = 100 mg BID, Week 16, peak plasma conc. Q2 to <Q3, N=2
[13] = 100 mg BID, Week 16, peak plasma conc. ≥Q3, N=3
[14] = 100 mg BID, Week 16, trough plasma conc <Q1

CC(=O)NCCCC[C@@H]1NC(=O)[C@H](Cc2c[nH]c3c(C)cccc23)NC(=O)[C@H]([C@@H](C)O)NC(=O)[C@H](CC(N)=O)NC(=O)[C@@H](NC(C)=O)C(C)(C)SSC(C)(C)[C@@H](C(=O)N[C@@H](Cc2ccc(OCCN)cc2)C(=O)N[C@@H](Cc2ccc3ccccc3c2)C(=O)NC2(C(=O)N[C@@H](CCC(=O)O)C(=O)N[C@@H](CC(N)=O)C(=O)N[C@@H](Cc3cccnc3)C(=O)N(C)CC(N)=O)CCOCC2)NC1=O [IL-23 receptor antagonist peptide, Ac-[Pen]*-N-T-[W(7-Me)]-[Lys(Ac)]-[Pen]*-Phe[4-(2-aminoethoxy)]-[2-Nal]-[THP]-E-N-[3-Pal]-Sarc-NH2 (*[Pen]-[Pen]* formdisulfidebond)]
PASI 100% Improvement, subjects [1]: 1 (16.7%) | PASI ≥75% Improvement, subjects [1]: 3 (50.0%) | PASI ≥90% Improvement, subjects [1]: 1 (16.7%) | Subjects achieving PASI 75 (50 mg QD): 16.3% | PASI 75 treatment difference vs placebo (50 mg QD, Week 16): 48.8% | PASI 90 treatment difference vs placebo (50 mg QD, Week 16): 48.8% (33.3%, | PASI 100 treatment difference vs placebo (50 mg QD, Week 16): 25.6% (12.7%, | Subjects achieving PASI 90 (50 mg QD, Week 16): 22 (51.2%) | Subjects achieving PASI 100 (50 mg QD, Week 16): 11 (25.6%) | PASI 75, % (50 mg QD, Week 16, N=43): 58.1% | PASI 90, % (50 mg QD, Week 16, N=43): 51.2% | PASI 100, % (50 mg QD, Week 16, N=43): 25.6% | PASI 100% Improvement, n subjects [2]: 0 | PASI ≥75% Improvement, % subjects [2]: (50.0%) | PASI ≥75% Improvement, n subjects [2]: 1 | PASI ≥90% Improvement, n subjects [2]: 0 | PASI 100% Improvement, % subjects [3]: (50.0%) | PASI 100% Improvement, n subjects [3]: 1 | PASI ≥75% Improvement, % subjects [3]: (100.0%) | PASI ≥75% Improvement, n subjects [3]: 2 | PASI ≥90% Improvement, % subjects [3]: (100.0%) | PASI ≥90% Improvement, n subjects [3]: 2 | PASI 100% Improvement, n subjects [4]: 0 | PASI ≥75% Improvement, % subjects [4]: (50.0%) | PASI ≥75% Improvement, n subjects [4]: 1 | PASI ≥90% Improvement, % subjects [4]: (50.0%) | PASI ≥90% Improvement, n subjects [4]: 1 | PASI 100% Improvement, n subjects [5]: 0 | PASI ≥75% Improvement, % subjects [5]: (100.0%) | PASI ≥75% Improvement, n subjects [5]: 2 | PASI ≥90% Improvement, % subjects [5]: (100.0%) | PASI ≥90% Improvement, n subjects [5]: 2 | PASI 100% Improvement, subjects [6]: 1 (20.0%) | PASI ≥75% Improvement, subjects [6]: 2 (40.0%) | PASI ≥90% Improvement, subjects [6]: 1 (20.0%) | PASI 100% Improvement, subjects [7]: 2 (40.0%) | PASI ≥75% Improvement, subjects [7]: 3 (60.0%) | PASI ≥90% Improvement, subjects [7]: 3 (60.0%) | PASI 100% Improvement, subjects [8]: 2 (40.0%) | PASI ≥75% Improvement, subjects [8]: 3 (60.0%) | PASI ≥90% Improvement, subjects [8]: 2 (40.0%) | PASI 100% Improvement, subjects [9]: 1 (20.0%) | PASI ≥75% Improvement, subjects [9]: 3 (60.0%) | PASI ≥90% Improvement, subjects [9]: 3 (60.0%) | Subjects achieving PASI 75 (100 mg BID): 23.8% | Subjects achieving PASI 100 (100 mg BID, Week 8): 11.9% | PASI 75 treatment difference vs placebo (100 mg BID, Week 16): 69.4% | PASI 90 treatment difference vs placebo (100 mg BID, Week 16): 57.3% (42.0%, | PASI 100 treatment difference vs placebo (100 mg BID, Week 16): 40.5% (25.8%, | Subjects achieving PASI 90 (100 mg BID, Week 16): (59.5%) | PASI 75, % (100 mg BID, Week 16, N=42): 78.6% | PASI 90, % (100 mg BID, Week 16, N=42): 59.5% | PASI 100, % (100 mg BID, Week 16, N=42): 40.5% | PASI 100% Improvement, % subjects [10]: (50.0%) | PASI 100% Improvement, n subjects [10]: 1 | PASI ≥75% Improvement, n subjects [10]: 2 | PASI ≥90% Improvement, % subjects [10]: (100.0%) | PASI ≥90% Improvement, n subjects [10]: 2 | PASI 100% Improvement, % subjects [11]: (33.3%) | PASI 100% Improvement, n subjects [11]: 1 | PASI ≥75% Improvement, n subjects [11]: 3 | PASI ≥90% Improvement, % subjects [11]: (100.0%) | PASI ≥90% Improvement, n subjects [11]: 3 | PASI 100% Improvement, % subjects [12]: (50.0%) | PASI 100% Improvement, n subjects [12]: 1 | PASI ≥75% Improvement, n subjects [12]: 1 | PASI ≥90% Improvement, % subjects [12]: (50.0%) | PASI ≥90% Improvement, n subjects [12]: 1 | PASI 100% Improvement, % subjects [13]: (66.7%) | PASI 100% Improvement, n subjects [13]: 2 | PASI ≥75% Improvement, n subjects [13]: 3 | PASI ≥90% Improvement, % subjects [13]: (66.7%) | PASI ≥90% Improvement, n subjects [13]: 2 | PASI 100% Improvement, subjects [14]: 1 (25.0%) | PASI ≥75% Improvement, subjects [14]: 3 (75.0%) | PASI ≥90% Improvement, subjects [14]: 50.0%

Reference: patent US20260232767A1, “INTERLEUKIN-23 RECEPTOR ANTAGONIST PEPTIDES FOR USE IN THE TREATMENT OF PSORIASIS” (Janssen Pharmaceutica NV, priority 2023, published 2026)
